This assay deals with K562 human leukemia cells. As to the kind of experiment: Leukemia K562 cell model in rats, survival after onset of circulating blast cells. As to conditions: oral 30 mg/kg, treated for 7 to 14 days. The format is in vivo. As to the method: Male Waster rats (220-230 g) were used. Rats were maintained in cages with raised floors of wide wire mesh to prevent coprophagy. All animals were kept under uniform and controlled conditions of temperature and light/dark (12/12 h) cycles. The animals were fed with standard pelleted diet and water ad libitum and were left one week for acclimatization to animal room condition.
A known weight of total methanol extract and each of the isolated compounds (P1-P5) and the reference drug (TKIs) was dissolved in 3% v/v Tween 80 to produce solutions of 10% concentration.
In absence of LD50 values for the total methanol extract and each of the isolated compounds, an experimental dose of 100/mg kg was selected in this investigation to be given orally to rats. The reference drug, TKIs, were given orally at a certain dose (30 mg/kg). This dose was calculated by converting the therapeutic dose that used in human to rat's dose according to the table of Paget & Barnes (1964). […]
Rats were divided into 8 equal groups. […] After transplantation of the K562 cells, animals were monitored for the presence of circulating blast cells by blood sampling from the retro-orbital plexus according to Ratajczak et al. (1992) method.
After 5 weeks, leukemic cell transplantation in animals was monitored for the development of overt leukemia by retro-orbital plexus bleeding thrice weekly. […]

For the compound `Cc1ccc(NC(=O)c2ccc(CN3CCN(C)CC3)cc2)cc1Nc1nccc(-c2cccnc2)n1` [TKIs, 4-[(4-methyl-1-piperazinyl)methyl]-N-[4-methyl-3-[[4-(3-pyridinyl)-2-pyrimidinyl]aminophenyl]benzamide methanesulfonate], the “survival compared with control animals” value is given as “not statistically different from the control animals”.
